The test has as its target T1, rBCATc (Rattus norvegicus, UniProt P54690).
T1 construct: The supernatant was dialyzed with at least three changes of dialysis buffer; from tissue; host or cells: rat brain (high-speed supernatant of homogenate, dialyzed)
T1 sequence (P54690 1-411): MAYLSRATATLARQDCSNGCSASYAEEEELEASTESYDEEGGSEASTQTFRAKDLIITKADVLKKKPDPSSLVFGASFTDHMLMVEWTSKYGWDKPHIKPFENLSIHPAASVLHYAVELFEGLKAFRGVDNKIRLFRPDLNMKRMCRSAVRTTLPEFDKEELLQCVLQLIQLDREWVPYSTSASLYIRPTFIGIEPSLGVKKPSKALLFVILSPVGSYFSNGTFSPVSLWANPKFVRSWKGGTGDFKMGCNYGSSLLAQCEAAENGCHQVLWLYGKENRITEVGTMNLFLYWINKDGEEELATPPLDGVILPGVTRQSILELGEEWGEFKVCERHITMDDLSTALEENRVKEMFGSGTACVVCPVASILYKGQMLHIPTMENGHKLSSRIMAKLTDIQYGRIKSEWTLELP
The experiment in a line: Assay of BCAT ([14C] L-leucine transamination, rat brain supernatant enzyme). The following applies: 25 µM [14C] L-leucine, 10 mM 2-oxoglutarate, pH 8.3, 10 min, 22 °C; read-out: rBCATc IC50. Format: biochemical. The protocol: Enzyme preparation: Frozen rat brains were thawed on ice and minced into fine pieces. […] The samples were homogenized in Potters homogenizer (B. Bran Biotech International) at 500 rpm for ten strokes, followed by additional ten strokes at 800 rpm. The homogenates were centrifuged in Beckman J2-M1 centrifuge with rotor JA-20 at 19, 000 rpm for 1 hr. […] The resulting enzyme was stored at -80 °C for further assays.
The solutions for the reaction mixture were made in 10-fold concentrations. After 10 min incubation at room temperature (22 °C), the reaction was stopped by adding 100 µl of 15 mM p-nitrophenyl hydrazine in 2 M HCL. After a few minutes, 1 mL of a toluene-based scintillation liquid (4.5 g of PPO and 0.5 g ofbis-MSB in 1 liter of toluene) was added, the tube was capped and mixed thoroughly with a Vortex mixer. […] Six hundreds µl of organic layer from each tube was placed into scintillation vials, followed by adding 10 ml of scintillation cocktail for counting.

The structures appear in SMILES notation. Structures can show the parent of a compound that is named as a salt.

As for `C[C@@H]1C[C@H](C)CC(CC(=O)O)(CC(=O)O)C1` [Example 48, ((3R,5S)-1-Carboxymethyl-3,5-dimethyl-cyclohexyl)-acetic acid], the IC50 amounted to 8530 µM.

On to `C[C@@H]1C[C@H](C)C[C@](CN)(CC(=O)O)C1` [Example 8, 1α,3β,5β-(1-Aminomethyl-3,5-dimethyl-cyclohexyl)-acetic acid hydrochloride], for which the IC50 amounted to 74 µM.

As to `COC(CNCC1(CC(=O)O)CCCCC1)OC` [Example 53, {1-[2,2-Dimethoxy-ethylamino)-methyl]-cyclohexyl}-acetic acid; hydrochloride salt], the half-maximal inhibitory concentration (IC50) was 3340 µM.

In the case of `CCCNCC1(CC(=O)O)C[C@H](C)C[C@H](C)C1` (stereo in doubt) [Example 62, ((3R, 5S)-3,5-Dimethyl-1-propylaminomethyl-cyclohexyl)-acetic acid; hydrochloride salt], the IC50 was determined as 4220 µM.

`CN(C)CC1(CC(=O)O)CCCCC1` [Example 51, (1-Dimethylaminomethyl-cyclohexyl)-acetic acid; hydrochloride salt]: the 50% inhibitory concentration (IC50) is above 10000 µM.

For the compound `CC(C)CNCC1(CC(=O)O)CCCCC1` [Example 31, [1-(Isobutylamino-methyl)-cyclohexyl]-acetic acid hydrochloride salt], the IC50 stood at 908 µM.

`C[C@@H]1C[C@H](C)CC(CO)(CC(=O)O)C1` (stereo partly drawn) [Example 58, ((3R, 5S)-1-Hydroxymethyl-3,5-dimethyl-cyclohexyl)-acetic acid; sodium salt]: the IC50 came to 179 µM.

As to `O=C(O)CC1(CNCCCC(F)(F)F)CCCCC1` [Example 27, {1-[(4,4,4-Trifluoro-butylamino)-methyl]-cyclohexyl}-acetic acid; hydrochloride salt], the IC50 turned out to be 1550 µM.

Take `O=C(O)CC1(CNCC2CCCCC2)CCCCC1` [Example 38, {1-[(Cyclohexylmethyl-amino)-methyl]-cyclohexyl}-acetic acid; hydrochloric salt]: the IC50 stood at 2620 µM.

Take `C[C@@H]1C[C@H](C)CC(CNCC2CCCCC2)(CC(=O)O)C1` (stereo partly drawn) [Example 46, {(3R, 5S)-1-[(Cyclohexylmethyl-amino)-methyl]-3,5-dimethylcyclohexyl}-acetic acid; hydrochloride salt]: the IC50 is 1130 µM.

On to `C[C@@H]1CC(CN)(CC(=O)O)C[C@H]1C` [Example 6, (+)-(trans)-(1-Aminomethyl-3,4-dimethyl-cyclopentyl)-acetic acid hydrochloride], for which the half-inhibitory concentration (IC50) worked out at 2620 µM.

As to `C[C@@H]1C[C@H](C)CC(CNC2CCCCC2)(CC(=O)O)C1` (stereo partly drawn) [Example 47, ((3R, 5S)-1-Cyclohexylaminomethyl-3,5-dimethyl-cyclohexyl)-acetic acid; hydrochloride salt], the IC50 is 15600 µM.

As to `C[C@H]1CC(CN)(CC(=O)O)C[C@@H]1C` [Example 7, (+)-(trans)-(1-Aminomethyl-3,4-dimethyl-cyclopentyl)-acetic acid hydrochloride], the IC50 came out at 2170 µM.

As to `C[C@@H]1C[C@H](C)C[C@](CNCc2ccccc2)(CC(=O)O)C1` [Example 11, 1α,3β,5β-(1-Benzylamino-methyl)-3,5-dimethyl-cyclohexyl]-acetic acid; hydrochloride salt], the IC50 is 1390 µM.

`O=C(O)CC1(CNCC2CCCC2)CCCCC1` [Example 37, {1-[Cyclopentylmethyl-amino)-methyl]-cyclohexyl}-acetic acid; hydrochloric salt]: the IC50 worked out at 1190 µM.

In the case of `CCCC1CCC(CN)(CC(=O)O)CC1` (stereo not drawn) [Example 61, (1-Aminomethyl-4-propyl-cyclohexyl)-acetic acid; hydrochloric salt], the half-inhibitory concentration (IC50) amounted to 114 µM.

As to `CCNCC1(CC(=O)O)CCCCC1` [Example 28, (1-Ethylaminomethyl-cyclohexyl)-acetic acid hydrochloride salt], the IC50 was found to be 181 µM.

Consider `CCNCC1(CC(=O)O)CC(C)CC(C)C1` (stereo not drawn) [Example 10, 1α,3β,5β-(1-Ethylaminomethyl-3,5-dimethyl-cyclohexyl)-acetic acid hydrochloride salt], for which the IC50 is 121 µM.

For the origin of these results see patent EP1157000B1 (Warner-Lambert Company LLC, priority 1999, dated 2001).
